This is an account of results in PMC9515143, “Phosphorylation of Jhd2 by the Ras-cAMP-PKA(Tpk2) pathway regulates histone modifications and autophagy” (Nature Communications, 2022).

Assay [1] relates to H2Bub. As to the kind of experiment: Western blot of H2B monoubiquitination (H2Bub) after glucose. The class given is cell-based, budding yeast (Saccharomyces cerevisiae). Particulars: for H2Bub/H2B: 0.5 hr. The method, then:
(§1) To examine the effect of glucose on histone modifications, yeast cells were grown in 2% glucose-containing YPD (Yeast Extract Peptone Dextrose) medium until OD600 of 0.7–1.0. Cells were then collected, washed and resuspended in YP medium for 3 hr followed by treatment with different concentrations of glucose for 0.5 hr. For 1NM-PP1 (MCE, HY-13804) treatment, cells were grown in 2% YPD until OD600 of 0.7–1.0. Cells were then treated with 25 μM 1NM-PP1 for 0.5 hr. For FBP and pyruvate treatment, cells were pre-treated with Zymolase (Mpbio, 08320921) to increase the permeability. In brief, cells were grown in YPD medium until OD600 of 0.7–1.0, centrifuged and resuspended in 1 ml SB buffer (100 mM Sorbitol, 20 mM Tris pH 7.4). 10 μl Zymolase was then added and incubated at 30 °C for 15 min. The spheroplasts were washed and cultured in YPD medium containing different concentrations of FBP and pyruvate for 3 hr.
Cells were grown in 5 ml YPD or selective medium until OD600 of 0.7–1.0. Cells were harvested and lysed in alkaline lysis buffer (2 M NaOH, 8% 2-mercaptoethanol). After centrifugation, the protein pellet was resuspended in 150 μl 2×SDS-sample buffer. Protein samples were separated by 8–15% SDS-PAGE and transferred to PVDF membrane. The blots were probed with primary antibodies followed by incubation with horseradish peroxidase-labelled IgG secondary antibodies. The protein bands were visualized using the ECL Chemiluminescence Detection Kit (Bio-Rad, 170–5061) and quantified with Image J software (v.1.8.0).
(§2) Supplementary Fi g . […] WT (a) and H2B-F LA G cel ls (b) wer e grown in YPD medium until OD600 of 0.7.
(§3) Cells were th en tr eat ed with YP medium supplement ed with differen t concentrations of glucos e for 0.5 hr. C ells were h ar vested an d the ex tract ed histones w er e anal yz ed by Western blots with indicat ed ant ibodies. To d et ect H2B monoubiquitination, H2B-F LAG strain w as used and d et ect ed with anti -F LAG ant ibody. Th e upper bands ar e monoubiquitinat ed H2B-F LAG. c E ff e c t of gl ucose on histone modifications in WT and ubp8∆ ubp10∆ mutant. WT and ubp8∆ ubp10∆ mut ant w er e gro wn in YPD medium unti l OD600 of 0.7. Cells wer e th en treated with YP medium supplem ent ed with di fferent con cen tr ations of gl u cos e fo r 0.5 hr. d Gluco se has no effect on the activit y of C O M PA S S . Spp1-TA P cells wer e grown in YPD medium until OD600 of 1.5. Cells were h arv est ed and then treat ed with YP + 0.05% glucos e and YP + 4% gl u cos e for 0.5 hr. Spp1-cont aining COMPASS (Spp1-CBP ) was then p urifi ed by tand em affinit y puri fi cati on ( TA P ) . Th e in vitro hi stone meth yltransferase assa y was p er form ed wit h purifi ed C O M PA S S and in vitro assembl ed nucl eosom es. e E ff e c t of the m TO R pathwa y on H3K4 meth ylation. […]
For Supplem ent ar y Fi g. 1b, e-g, i-k, d at a r ep res ent means ± SEM; n=3 i ndependent ex perim ents. For Supplem entar y Fi g. 1c, d ata represent means ± SEM; n=4 independent ex periments. Tw o -sided t-tests were used for statistical analysis.
In general terms: Immunoblotting shows a protein as a band on a membrane.

The test system of assay [2] is COMPASS (Spp1-CBP). As to the kind of experiment: In vitro histone methyltransferase (HMT) assay with purified COMPASS. The class given is biochemical, budding yeast (Saccharomyces cerevisiae). Particulars: COMPASS (Spp1-CBP) purified from cells grown in 0.05% glucose. The method, then:
The HMT reactions were carried out using purified COMPASS (Spp1-CBP) and 15 μg recombinant H3 in 50 μl reaction buffer (50 mM Tris pH 8.5, 20 mM KCl, 10 mM MgCl2, 10 mM 2-mercaptoethanol, 100 μM SAM, 250 mM sucrose, protease inhibitor cocktail) at 30 °C for 0–2 hr. Reactions were quenched by adding 5 × SDS loading buffer and boiled at 95°C for 5 min. Protein was separated on a 10–20% SDS-PAGE gel followed by Western blots with the antibodies indicated.
as §2
as §3, with “then” for “then treat ed with YP + 0.05% glucos e and YP + 4% gl u cos e for 0.5 hr. Spp1-cont aining COMPASS (Spp1-CBP ) was then p urifi ed by tand em affinit y puri fi cati on ( TA P ) . Th e in vitro hi stone meth yltransferase assa y was p er form ed wit h purifi ed C O M PA S S and in vitro assembl ed nucl eosom es. e E ff e c t of the m TO R pathwa y on H3K4 meth ylation.”

For assay [3], the system named is H3K14ac. The assay is described as follows: Western blot of H3K14ac (glucose, mutants). The class given is cell-based, budding yeast (Saccharomyces cerevisiae). The method, then:
as §1
Cells were grown in 5 ml YPD or selective medium until OD600 of 0.7–1.0. Cells were harvested and lysed in alkaline lysis buffer (2 M NaOH, 8% 2-mercaptoethanol). After centrifugation, the protein pellet was resuspended in 150 μl 2×SDS-sample buffer. Protein samples were separated by 8–15% SDS-PAGE and transferred to PVDF membrane. […] The protein bands were visualized using the ECL Chemiluminescence Detection Kit (Bio-Rad, 170–5061) and quantified with Image J software (v.1.8.0).

SMILES strings stand for the structures.

As to `OC[C@H]1OC(O)[C@H](O)[C@@H](O)[C@@H]1O` (stereo partly shown) [glucose], the H2Bub/H2B is 1.541 in assay [1] (0.5% glucose, relative to 0.05% glucose = 1, replicate 1); 1.389 in assay [1] (0.5% glucose, relative to 0.05% glucose = 1, replicate 2); 1.9778 in assay [1] (0.5% glucose, relative to 0.05% glucose = 1, replicate 3); 1.812 in assay [1] (1% glucose, relative to 0.05% glucose = 1, replicate 1); 3.264 in assay [1] (1% glucose, relative to 0.05% glucose = 1, replicate 2); 4.024 in assay [1] (1% glucose, relative to 0.05% glucose = 1, replicate 3). The H2Bub/H2B came to 2.484 in assay [1] (2% glucose, relative to 0.05% glucose = 1, replicate 1); 4.332 in assay [1] (2% glucose, relative to 0.05% glucose = 1, replicate 2); 3.575 in assay [1] (2% glucose, relative to 0.05% glucose = 1, replicate 3); 3.885 in assay [1] (4% glucose, relative to 0.05% glucose = 1, replicate 1); 5.306 in assay [1] (4% glucose, relative to 0.05% glucose = 1, replicate 2); 5.56 in assay [1] (4% glucose, relative to 0.05% glucose = 1, replicate 3). Besides, the H2Bub level result in assay [1] (H2B-FLAG cells, glucose 0.5 hr, Western blot) is listed as “induced H2Bub”. The “HMT activity of COMPASS” value in assay [2] is “did not affect the HMT activity of COMPASS”. In addition, the H3K14ac level entry in assay [3] (WT cells, glucose 0.5 hr) is “induced H3K14ac”. The “H3K14ac level, WT versus Jhd2-S321A, S340A and tpk2Δ” value in assay [3] (glucose) was “increased in response to glucose in WT but not in Jhd2-S321A, S340A and tpk2Δ mutants”.
